Assays:
[1] = Effect of SLS concentration on apparent solubility (Example 10); type: physicochemical; details: VX-950 (95% L/5% D)
Protocol: The effect of SLS concentration on the apparent solubility of VX-950 solid dispersions were tested.

[2] = type: physicochemical
Description: The manufacture of an amorphous solid dispersion containing VX-950 presented several challenges. […] Therefore, an appropriate solvent or solvent mixture is crucial to optimizing the processing and production of a solid dispersion.

in vivo = details: rat, po

Row | Compound | % dissolved in water @ 5 min. [1] [%] | aqueous solubility [2] | pH dependence of aqueous solubility [2] | solubility in water [2] | bioavailability (in vivo) [%]
1 | CCC[C@H](NC(=O)[C@@H]1[C@H]2CCC[C@H]2CN1C(=O)[C@@H](NC(=O)[C@@H](NC(=O)c1cnccn1)C1CCCCC1)C(C)(C)C)C(=O)C(=O)NC1CC1 [No Excipients] | 2.7 | – | – | – | –
2 | CCC[C@H](NC(=O)[C@@H]1[C@H]2CCC[C@H]2CN1C(=O)[C@@H](NC(=O)[C@@H](NC(=O)c1cnccn1)C1CCCCC1)C(C)(C)C)C(=O)C(=O)NC1CC1 [VX-950] | – | virtually undetectable | not pH-dependent | highly insoluble | < 0.5
